Experimental findings from US8871753B2, “Macrocyclic compounds and their use as kinase inhibitors” (Incyte Corporation, priority 2008, dated 2014) are described below.

Format in all cases: biochemical
Assay [1] deals with T1, human JAK2 (a.a. 828-1132) (Homo sapiens, UniProt O60674).
T1 construct: JAK2 (a.a. 828-1132); His tag (N); made in house; host or cells: insect cells (baculovirus)
Description: In vitro JAK kinase assay (HTRF, phosphorylation of a biotinylated peptide), JAK2. Particulars: method AA1 (30 μM ATP) or AA2 (1000 μM ATP), not stated per value. The method in brief: (§1)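 Kinase activity was measured as phosphorylation of a biotinylated peptide, with ATP at 90 μM for JAK1, 30 μM for JAK2 and 3 μM for JAK3. Reactions ran 1 hr at room temperature, were stopped with EDTA plus SA-APC and Eu-Py20, and were read by HTRF after 40 minutes of antibody binding.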
(In general: In TR-FRET formats the signal depends on donor and acceptor labels being close together.)

The target in assay [2] is T2, human JAK1 (a.a. 837-1142) (Homo sapiens, UniProt P23458).
T2 construct: human JAK1 (a.a. 837-1142); His tag (N); made in house; host or cells: insect cells (baculovirus)
T2 sequence (P23458 849-1154): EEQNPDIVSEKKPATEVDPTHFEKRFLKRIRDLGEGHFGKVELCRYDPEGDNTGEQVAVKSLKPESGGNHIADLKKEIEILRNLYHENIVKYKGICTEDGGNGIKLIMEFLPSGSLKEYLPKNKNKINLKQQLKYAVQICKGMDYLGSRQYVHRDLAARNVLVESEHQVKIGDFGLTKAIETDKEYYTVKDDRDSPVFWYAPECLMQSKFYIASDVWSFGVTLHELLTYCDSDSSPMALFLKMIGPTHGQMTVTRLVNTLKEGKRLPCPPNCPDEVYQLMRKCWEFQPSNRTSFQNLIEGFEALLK
Description: In vitro JAK kinase assay (HTRF, phosphorylation of a biotinylated peptide), JAK1. As to conditions: method AA1 (90 μM ATP) or AA2 (1000 μM ATP), not stated per value; read-out: JAK1 IC50. The procedure, abridged: as §1

The target in assay [3] is T3, Recombinant Human Anaplastic Lymphoma Kinase (Homo sapiens, UniProt Q9UM73).
T3 construct: purchased Invitrogen, Carlsbad, Calif
T3 sequence (Q9UM73 19-1620): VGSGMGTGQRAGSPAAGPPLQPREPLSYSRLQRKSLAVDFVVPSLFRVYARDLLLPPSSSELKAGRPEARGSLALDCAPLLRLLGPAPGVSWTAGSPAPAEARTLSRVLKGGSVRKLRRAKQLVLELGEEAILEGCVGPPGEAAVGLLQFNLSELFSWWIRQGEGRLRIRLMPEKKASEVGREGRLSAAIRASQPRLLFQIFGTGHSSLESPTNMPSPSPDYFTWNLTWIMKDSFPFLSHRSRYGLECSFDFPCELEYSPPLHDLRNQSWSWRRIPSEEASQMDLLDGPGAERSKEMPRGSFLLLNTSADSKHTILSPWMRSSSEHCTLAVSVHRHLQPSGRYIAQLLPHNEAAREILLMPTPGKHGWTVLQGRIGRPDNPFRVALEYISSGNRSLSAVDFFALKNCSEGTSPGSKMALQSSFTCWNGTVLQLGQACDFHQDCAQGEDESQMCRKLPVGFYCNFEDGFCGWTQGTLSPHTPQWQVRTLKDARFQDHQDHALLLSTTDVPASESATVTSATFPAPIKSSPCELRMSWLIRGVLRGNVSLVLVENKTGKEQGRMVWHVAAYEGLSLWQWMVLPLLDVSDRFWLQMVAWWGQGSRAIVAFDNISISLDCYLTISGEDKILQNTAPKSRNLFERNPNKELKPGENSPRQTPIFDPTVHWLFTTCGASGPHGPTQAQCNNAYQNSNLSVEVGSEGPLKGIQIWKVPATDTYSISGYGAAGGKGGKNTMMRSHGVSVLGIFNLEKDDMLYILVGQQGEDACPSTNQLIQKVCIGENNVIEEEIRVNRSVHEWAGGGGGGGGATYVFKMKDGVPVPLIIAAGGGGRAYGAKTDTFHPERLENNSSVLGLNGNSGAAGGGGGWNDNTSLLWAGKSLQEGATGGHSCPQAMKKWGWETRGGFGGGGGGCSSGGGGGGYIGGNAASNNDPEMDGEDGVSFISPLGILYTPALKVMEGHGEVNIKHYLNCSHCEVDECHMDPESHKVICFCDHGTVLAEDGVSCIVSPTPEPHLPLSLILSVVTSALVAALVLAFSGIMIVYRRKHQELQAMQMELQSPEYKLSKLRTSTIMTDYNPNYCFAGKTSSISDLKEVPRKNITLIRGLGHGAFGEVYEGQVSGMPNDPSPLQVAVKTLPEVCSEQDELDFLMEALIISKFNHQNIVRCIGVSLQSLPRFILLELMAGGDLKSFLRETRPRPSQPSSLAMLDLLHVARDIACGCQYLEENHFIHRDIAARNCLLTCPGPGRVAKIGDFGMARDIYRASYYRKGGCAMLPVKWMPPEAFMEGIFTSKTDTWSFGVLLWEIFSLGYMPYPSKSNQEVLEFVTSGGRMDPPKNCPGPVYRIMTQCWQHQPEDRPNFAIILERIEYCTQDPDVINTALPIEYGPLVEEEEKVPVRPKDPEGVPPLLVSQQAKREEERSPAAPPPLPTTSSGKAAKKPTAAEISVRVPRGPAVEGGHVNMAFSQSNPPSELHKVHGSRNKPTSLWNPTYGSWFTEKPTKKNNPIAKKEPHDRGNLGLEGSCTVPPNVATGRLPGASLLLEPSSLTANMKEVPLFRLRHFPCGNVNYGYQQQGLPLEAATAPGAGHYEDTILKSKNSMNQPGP
Description: ALK HTRF kinase assay. As to conditions: compound at 500 nM or 1 mM; 90 μM ATP. The method in brief: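 TR-FRET read-out (Eu anti-pTyr antibody + streptavidin-APC) of biotin-peptide phosphorylation by recombinant human enzyme; IC50 by sigmoidal fit with top/bottom baselines and Hill slope.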

For the next assay, the target named is TYK2 (Homo sapiens, UniProt P29597). Description: TYK2 kinase inhibition (Table A1).
TYK2, sequence (P29597 whole entry): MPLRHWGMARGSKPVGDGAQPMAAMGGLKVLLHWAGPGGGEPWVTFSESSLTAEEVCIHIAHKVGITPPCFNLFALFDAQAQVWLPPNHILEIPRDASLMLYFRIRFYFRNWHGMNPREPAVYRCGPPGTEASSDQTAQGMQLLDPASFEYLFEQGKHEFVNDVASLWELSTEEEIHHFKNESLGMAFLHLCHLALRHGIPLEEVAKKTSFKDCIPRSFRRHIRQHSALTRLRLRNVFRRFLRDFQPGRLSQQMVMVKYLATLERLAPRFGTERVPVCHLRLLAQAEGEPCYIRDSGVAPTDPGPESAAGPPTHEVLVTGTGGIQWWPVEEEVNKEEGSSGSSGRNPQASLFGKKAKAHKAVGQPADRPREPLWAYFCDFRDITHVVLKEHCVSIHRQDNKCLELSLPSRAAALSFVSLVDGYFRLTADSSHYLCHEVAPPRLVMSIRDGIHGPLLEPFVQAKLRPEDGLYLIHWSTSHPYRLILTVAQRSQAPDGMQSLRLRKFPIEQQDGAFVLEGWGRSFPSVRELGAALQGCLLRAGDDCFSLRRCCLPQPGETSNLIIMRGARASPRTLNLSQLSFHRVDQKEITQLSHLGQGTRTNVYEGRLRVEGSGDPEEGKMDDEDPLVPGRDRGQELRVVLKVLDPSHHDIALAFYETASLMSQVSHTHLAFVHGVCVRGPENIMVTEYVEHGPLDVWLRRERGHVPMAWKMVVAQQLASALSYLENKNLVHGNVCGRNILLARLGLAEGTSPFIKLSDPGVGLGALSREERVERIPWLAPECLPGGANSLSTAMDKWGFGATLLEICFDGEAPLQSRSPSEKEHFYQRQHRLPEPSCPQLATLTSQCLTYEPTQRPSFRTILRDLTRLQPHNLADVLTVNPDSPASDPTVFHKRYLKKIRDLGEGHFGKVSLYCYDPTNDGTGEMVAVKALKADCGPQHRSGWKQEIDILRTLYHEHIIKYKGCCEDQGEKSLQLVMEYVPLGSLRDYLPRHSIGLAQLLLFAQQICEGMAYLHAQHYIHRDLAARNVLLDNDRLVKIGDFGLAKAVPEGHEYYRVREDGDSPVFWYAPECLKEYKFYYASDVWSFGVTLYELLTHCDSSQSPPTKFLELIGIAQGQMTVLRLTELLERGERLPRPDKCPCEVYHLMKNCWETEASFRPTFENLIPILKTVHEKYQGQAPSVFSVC
In assay [4] the target is T4, human JAK3 (a.a. 781-1124) (Homo sapiens, UniProt P52333).
T4 construct: JAK3 (a.a. 781-1124); His tag (N); made in house; host or cells: insect cells (baculovirus)
T4 sequence (P52333 781-1124): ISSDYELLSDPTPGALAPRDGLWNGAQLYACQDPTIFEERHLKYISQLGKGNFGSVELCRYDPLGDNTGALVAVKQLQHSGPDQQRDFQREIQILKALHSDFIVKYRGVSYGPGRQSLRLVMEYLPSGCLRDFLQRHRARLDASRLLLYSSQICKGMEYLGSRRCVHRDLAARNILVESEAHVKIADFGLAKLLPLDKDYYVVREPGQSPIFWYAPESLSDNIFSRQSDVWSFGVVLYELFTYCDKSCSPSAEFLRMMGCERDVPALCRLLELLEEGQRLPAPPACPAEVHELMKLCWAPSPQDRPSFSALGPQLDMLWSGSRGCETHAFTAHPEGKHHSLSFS
Description: In vitro JAK kinase assay (HTRF, phosphorylation of a biotinylated peptide), JAK3. As to conditions: method AA1 (3 μM ATP) or AA2 (1000 μM ATP), not stated per value. The procedure, abridged:
as §1

Each structure is given as a SMILES string. Where a name gives a salt, the structure may show the parent alone. Bounds are passed on as bounds.

T1 sequence (O60674 828-1132): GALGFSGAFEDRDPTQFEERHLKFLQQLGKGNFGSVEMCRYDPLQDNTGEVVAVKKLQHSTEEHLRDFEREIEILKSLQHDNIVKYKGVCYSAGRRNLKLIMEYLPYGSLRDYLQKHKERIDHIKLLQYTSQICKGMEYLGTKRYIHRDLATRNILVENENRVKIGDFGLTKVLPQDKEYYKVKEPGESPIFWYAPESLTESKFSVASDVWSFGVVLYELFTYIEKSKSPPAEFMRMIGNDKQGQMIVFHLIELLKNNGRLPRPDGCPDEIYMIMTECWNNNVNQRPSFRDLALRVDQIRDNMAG

In general, IC50 refers to the concentration at which inhibition is half-maximal. Regarding `O=C(CC1CCN(C(=O)c2ccncc2)CC1)Nc1ccc2cc1CCc1cccc(c1)Nc1ncc(Cl)c(n1)N2` [Example A185, N-[6-Chloro-2,4,8,22-tetraazatetracyclo[14.3.1.1(3,7).1(9,13)]docosa-1(20),3(22),4,6,9(21),10,12,16,18-nonaen-12-yl]-2-(1-isonicotinoylpiperidin-4-yl)acetamide bis(trifluoroacetate)], the IC50 is > 200 nM in assay [1], 62 nM in assay [2], > 200 nM against TYK2 and > 200 nM in assay [4]. For the same molecule, the “ALK % of inhibition at a concentration of 500 nM or 1 mM” value (shortened to “ALK % of inhibition”) in assay [3] is listed as 33%.

As to `N#Cc1ccc(C(=O)N2CCC(CC(=O)Nc3ccc4cc3CCc3cccc(c3)Nc3ncc(Cl)c(n3)N4)CC2)cc1` [Example A186, N-[6-Chloro-2,4,8,22-tetraazatetracyclo[14.3.1.1(3,7).1(9,13)]docosa-1(20),3(22),4,6,9(21),10,12,16,18-nonaen-12-yl]-2-[1-(4-cyanobenzoyl)piperidin-4-yl]acetamide trifluoroacetate], the IC50 is 185 nM in assay [1], 58 nM in assay [2], > 200 nM on TYK2 and > 200 nM in assay [4]. Moreover, in assay [3], the “ALK % of inhibition” value is on record as 38%.

Take `N#Cc1cccc(C(=O)N2CCC(CC(=O)Nc3ccc4cc3CCc3cccc(c3)Nc3ncc(Cl)c(n3)N4)CC2)c1` [Example A187, N-[6-Chloro-2,4,8,22-tetraazatetracyclo[14.3.1.1(3,7).1(9,13)]docosa-1(20),3(22),4,6,9(21),10,12,16,18-nonaen-12-yl]-2-[1-(3-cyanobenzoyl)piperidin-4-yl]acetamide trifluoroacetate]: the IC50 is 132 nM in assay [1], 52 nM in assay [2], > 200 nM at TYK2 and > 200 nM in assay [4]. Moreover, in assay [3], the “ALK % of inhibition” value was found to be 37%.

As for `O=C(CC1CCN(C(=O)c2cccnc2)CC1)Nc1ccc2cc1CCc1cncc(c1)Nc1ncc(Cl)c(n1)N2` [Example A188, N-[6-Chloro-2,4,8,18,22-pentaazatetracyclo[14.3.1.1(3,7).1(9,13)]docosa-1(20),3(22),4,6,9(21),10,12,16,18-nonaen-12-yl]-2-[1-(pyridin-3-ylcarbonyl)piperidin-4-yl]acetamide tris(trifluoroacetate)], the IC50 in assay [1] is > 200 nM; in assay [2], 34 nM; against TYK2, > 200 nM; in assay [4] it was > 200 nM. The “ALK % of inhibition” value in assay [3] is given as 26%.

For `O=C(CC1CCN(C(=O)c2ccncc2)CC1)Nc1ccc2cc1CCc1cncc(c1)Nc1ncc(Cl)c(n1)N2` [Example A189, N-[6-Chloro-2,4,8,18,22-pentaazatetracyclo[14.3.1.1(3,7).1(9,13)]docosa-1(20),3(22),4,6,9(21),10,12,16,18-nonaen-12-yl]-2-(1-isonicotinoylpiperidin-4-yl)acetamide tris(trifluoroacetate)], the half-maximal inhibitory concentration (IC50) in assay [1] is > 200 nM; in assay [2] it was 116 nM; against TYK2, > 200 nM; in assay [4], > 200 nM. Moreover, in assay [3], the “ALK % of inhibition” value is 21%.

With `N#Cc1cccc(C(=O)N2CCC(CC(=O)Nc3ccc4cc3CCc3cncc(c3)Nc3ncc(Cl)c(n3)N4)CC2)c1` [Example A191, N-[6-Chloro-2,4,8,18,22-pentaazatetracyclo[14.3.1.1(3,7).1(9,13)]docosa-1(20),3(22),4,6,9(21),10,12,16,18-nonaen-12-yl]-2-[1-(3-cyanobenzoyl)piperidin-4-yl]acetamide bis(trifluoroacetate)], the IC50 in assay [1] is > 200 nM; in assay [2], 67 nM; against TYK2, > 200 nM; in assay [4], > 200 nM. Also, the “ALK % of inhibition” value in assay [3] stood at 25%.

With `O=C(CC1CCN(C(=O)c2ccccc2)CC1)Nc1ccc2cc1CCc1cncc(c1)Nc1ncc(Cl)c(n1)N2` [Example A192, 2-(1-Benzoylpiperidin-4-yl)-N-[6-chloro-2,4,8,18,22-pentaazatetracyclo[14.3.1.1(3,7).1(9,13)]docosa-1(20),3(22),4,6,9(21),10,12,16,18-nonaen-12-yl]acetamide bis(trifluoroacetate)], the IC50 in assay [1] is > 200 nM; in assay [2] it was 21 nM; on TYK2, > 200 nM; in assay [4], > 200 nM. For the same molecule, in assay [3], the “ALK % of inhibition” value is 31%.

Take `O=C(CC1CCN(C(=O)c2ccc(F)cc2)CC1)Nc1ccc2cc1CCc1cncc(c1)Nc1ncc(Cl)c(n1)N2` [Example A193, N-[6-Chloro-2,4,8,18,22-pentaazatetracyclo[14.3.1.1(3,7).1(9,13)]docosa-1(20),3(22),4,6,9(21),10,12,16,18-nonaen-12-yl]-2-[1-(4-fluorobenzoyl)piperidin-4-yl]acetamide bis(trifluoroacetate)]: the IC50 in assay [1] was > 200 nM; in assay [2], 12 nM; on TYK2, > 200 nM; in assay [4], > 200 nM. Also, in assay [3], the “ALK % of inhibition” value is 31%.

As for `O=C(CC1CCN(C(=O)c2ccc(F)cc2F)CC1)Nc1ccc2cc1CCc1cncc(c1)Nc1ncc(Cl)c(n1)N2` [Example A194, N-[6-Chloro-2,4,8,18,22-pentaazatetracyclo[14.3.1.1(3,7).1(9,13)]docosa-1(20),3(22),4,6,9(21),10,12,16,18-nonaen-12-yl]-2-[1-(2,4-difluorobenzoyl)piperidin-4-yl]acetamide bis(trifluoroacetate)], the IC50 in assay [1] was 150 nM; in assay [2], 7.3 nM; at TYK2, > 200 nM; in assay [4], > 200 nM. Besides, in assay [3], the “ALK % of inhibition” value is reported as 31%.

On to `O=C(CC1CCN(S(=O)(=O)c2ccccc2)CC1)Nc1ccc2cc1CCc1cncc(c1)Nc1ncc(Cl)c(n1)N2` [Example A195, N-[6-Chloro-2,4,8,18,22-pentaazatetracyclo[14.3.1.1(3,7).1(9,13)]docosa-1(20),3(22),4,6,9(21),10,12,16,18-nonaen-12-yl]-2-[1-(phenylsulfonyl)piperidin-4-yl]acetamide bis(trifluoroacetate)], for which the IC50 in assay [1] was 80 nM; in assay [2], 7.1 nM; against TYK2, 140 nM; in assay [4] it was > 200 nM. For the same molecule, the “ALK % of inhibition” value in assay [3] stood at 35%.

On to `COc1cccc(S(=O)(=O)N2CCC(CC(=O)Nc3ccc4cc3CCc3cncc(c3)Nc3ncc(Cl)c(n3)N4)CC2)c1` [Example A196, N-[6-Chloro-2,4,8,18,22-pentaazatetracyclo[14.3.1.1(3,7).1(9,13)]docosa-1(20),3(22),4,6,9(21),10,12,16,18-nonaen-12-yl]-2-{1-[(3-methoxyphenyl)sulfonyl]piperidin-4-yl}acetamide bis(trifluoroacetate)], for which the IC50 is 100 nM in assay [1], 15 nM in assay [2], > 200 nM at TYK2 and > 200 nM in assay [4]. Also, the “ALK % of inhibition” value in assay [3] stood at 34%.

As for `COc1ccc(S(=O)(=O)N2CCC(CC(=O)Nc3ccc4cc3CCc3cncc(c3)Nc3ncc(Cl)c(n3)N4)CC2)cc1` [Example A197, N-[6-Chloro-2,4,8,18,22-pentaazatetracyclo[14.3.1.1(3,7).1(9,13)]docosa-1(20),3(22),4,6,9(21),10,12,16,18-nonaen-12-yl]-2-{1-[(4-methoxyphenyl)sulfonyl]piperidin-4-yl}acetamide bis(trifluoroacetate)], the IC50 was > 200 nM in assay [1], 30 nM in assay [2], > 200 nM against TYK2 and > 200 nM in assay [4]. Moreover, the “ALK % of inhibition” value in assay [3] was found to be 39%.

In the case of `N#Cc1ccccc1S(=O)(=O)N1CCC(CC(=O)Nc2ccc3cc2CCc2cncc(c2)Nc2ncc(Cl)c(n2)N3)CC1` [Example A198, N-[6-Chloro-2,4,8,18,22-pentaazatetracyclo[14.3.1.1(3,7).1(9,13)]docosa-1(20),3(22),4,6,9(21),10,12,16,18-nonaen-12-yl]-2-{1-[(2-cyanophenyl)sulfonyl]piperidin-4-yl}acetamide bis(trifluoroacetate)], the IC50 in assay [1] is 50 nM; in assay [2], 0.4 nM; against TYK2, 50 nM; in assay [4], > 200 nM. Further, in assay [3], the “ALK % of inhibition” value was 56%.

Take `N#Cc1ccc(S(=O)(=O)N2CCC(CC(=O)Nc3ccc4cc3CCc3cncc(c3)Nc3ncc(Cl)c(n3)N4)CC2)cc1` [Example A199, N-[6-Chloro-2,4,8,18,22-pentaazatetracyclo[14.3.1.1(3,7).1(9,13)]docosa-1(20),3(22),4,6,9(21),10,12,16,18-nonaen-12-yl]-2-{1-[(4-cyanophenyl)sulfonyl]piperidin-4-yl}acetamide bis(trifluoroacetate)]: the IC50 in assay [1] was 199 nM; in assay [2], 32 nM; against TYK2, > 200 nM; in assay [4], > 200 nM. Further, the “ALK % of inhibition” value in assay [3] came out at 41%.
